Laboratory results published in patent US10590106B2, “Certain chemical entities, compositions, and methods” (NeuPharma, Inc., priority 2012, dated 2020).

How the values were obtained:
[1] = molecular target: BRAF (Homo sapiens (Human), UniProt P15056); assay: Inhibitory activity against kinase BRAF, Z'-LYTE method (Invitrogen); assay type: biochemical; details: 1 μM compound
Description: Inhibitory activities Inhibitory activities of compounds against BRAF, and BRAF V600E were measured by Invitrogen using Z′-LYTE® Method as briefly described in the following. 4× Test compounds are dissolved in 1% DMSO. […] ATP solutions are diluted to a 4×ATP working concentration in Kinase Buffer (50 mM HEPES pH 7.5, 0.01% BRIJ-35, 10 mM MgCl2, 1 mM EGTA). Reaction started by 30-second shaking of mixture consisting of 2.5 μL 4× test compound, […] and 2.5 μL 4×ATP Solution on Bar-coded Corning, low volume NBS, black 384-well plate (Corning Cat. #3676). Then the mixture was incubated for 60-minute at room temperature for the kinase reaction, followed by addition of 5 μL of a 1:1024 dilution of development reagent A and 30-second plate shake. The mixture was then incubated for another 60-minute at room temperature for development reaction. Fluorescence was read by plate reader. IC50 was calculated by plotting the concentration of compound vs the percentage of inhibition in treated wells using GraphPad Prism 5.
Table 2 and 3 show % inhibition at 1 μM of several compounds of the invention against BRAF and BRAF V600E, respectively, using Z′-LYTE® method.

[2] = molecular target: BRAF V600E (Homo sapiens (Human), UniProt P15056, V600E); assay: Inhibitory activity against kinase BRAF V600E, Z'-LYTE method (Invitrogen); assay type: biochemical; details: for inhibition at 1 µM: 1 μM compound, read-out: Inhibition (% inhibition at 1 μM) against BRAF V600E
Method in brief: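 FRET-based Z′-LYTE peptide-phosphorylation assay in 50 mM HEPES pH 7.5, 0.01% BRIJ-35, 10 mM MgCl2, 1 mM EGTA; kinase reaction 60 min at room temperature, then 60 min development before fluorescence read. IC50 from concentration vs % inhibition; single-point % inhibition tested at 1 μM.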

[3] = molecular target: KDR (VEGFR2) (Homo sapiens (Human), UniProt P35968); assay: Inhibitory activity against kinase KDR, Z'-LYTE method (Invitrogen); assay type: biochemical; details: for inhibition at 1 µM: 1 μM compound, read-out: Inhibition (% inhibition at 1 μM) against KDR
Method in brief: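 Human KDR (VEGFR2) kinase inhibition was measured with Invitrogen's Z′-LYTE® method. A 2× mixture of KDR and Tyr 01 peptide is made in 50 mM HEPES pH 7.5, 0.01% BRIJ-35, 10 mM MgCl2, 1 mM EGTA. Each 10 μL reaction holds 0.5-11.7 ng enzyme and 2 μM Tyr 01. It incubates for 1 hour, then 5 μL of Development Reagent B diluted 1:256 is added.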

[4] = test system: A375 cells; assay: Inhibition of cancer cell growth, MTT or MTS assay, A375; assay type: cell-based; details: Homo sapiens, A-375; 72 h incubation
Method in brief: (§1)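 Cells in RPMI 1640 with 10% FBS were seeded at ~2000 (A375) or 4000 (A549, Colo205) per well, grown 24 h, then exposed to compound 72 h at 1% final DMSO. Read-out by MTT (570 nm) or MTS (490 nm). IC50 from concentration vs percent inhibition, triplicates.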

[5] = test system: A549 cells; assay: Inhibition of cancer cell growth, MTT or MTS assay, A549; assay type: cell-based; details: Homo sapiens, 72 h incubation
Method in brief: as §1

Chain of BRAF (P15056 whole entry): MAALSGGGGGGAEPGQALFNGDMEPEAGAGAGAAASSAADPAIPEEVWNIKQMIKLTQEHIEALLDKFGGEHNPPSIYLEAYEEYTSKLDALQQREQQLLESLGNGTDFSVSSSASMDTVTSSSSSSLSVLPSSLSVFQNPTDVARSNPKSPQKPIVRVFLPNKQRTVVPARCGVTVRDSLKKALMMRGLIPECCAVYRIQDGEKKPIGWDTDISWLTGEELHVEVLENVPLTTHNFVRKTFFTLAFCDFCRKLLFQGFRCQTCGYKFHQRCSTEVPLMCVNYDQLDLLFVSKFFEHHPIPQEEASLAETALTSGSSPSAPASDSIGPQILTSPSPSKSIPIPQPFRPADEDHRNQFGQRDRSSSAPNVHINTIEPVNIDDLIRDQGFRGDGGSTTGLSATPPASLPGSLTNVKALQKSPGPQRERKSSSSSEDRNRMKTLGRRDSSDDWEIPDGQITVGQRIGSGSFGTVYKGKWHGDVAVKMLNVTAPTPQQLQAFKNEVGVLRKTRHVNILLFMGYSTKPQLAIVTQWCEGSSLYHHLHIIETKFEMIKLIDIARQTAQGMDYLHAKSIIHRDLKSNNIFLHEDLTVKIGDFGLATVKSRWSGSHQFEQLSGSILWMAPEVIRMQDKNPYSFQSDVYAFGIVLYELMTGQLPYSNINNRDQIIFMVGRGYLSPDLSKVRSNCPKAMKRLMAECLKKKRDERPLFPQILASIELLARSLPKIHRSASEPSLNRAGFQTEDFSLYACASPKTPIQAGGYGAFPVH
Chain of BRAF V600E (P15056 whole entry V600E): as the sequence (P15056 whole entry) above, with V600E counted along it
Chain of KDR (VEGFR2) (P35968 20-1356): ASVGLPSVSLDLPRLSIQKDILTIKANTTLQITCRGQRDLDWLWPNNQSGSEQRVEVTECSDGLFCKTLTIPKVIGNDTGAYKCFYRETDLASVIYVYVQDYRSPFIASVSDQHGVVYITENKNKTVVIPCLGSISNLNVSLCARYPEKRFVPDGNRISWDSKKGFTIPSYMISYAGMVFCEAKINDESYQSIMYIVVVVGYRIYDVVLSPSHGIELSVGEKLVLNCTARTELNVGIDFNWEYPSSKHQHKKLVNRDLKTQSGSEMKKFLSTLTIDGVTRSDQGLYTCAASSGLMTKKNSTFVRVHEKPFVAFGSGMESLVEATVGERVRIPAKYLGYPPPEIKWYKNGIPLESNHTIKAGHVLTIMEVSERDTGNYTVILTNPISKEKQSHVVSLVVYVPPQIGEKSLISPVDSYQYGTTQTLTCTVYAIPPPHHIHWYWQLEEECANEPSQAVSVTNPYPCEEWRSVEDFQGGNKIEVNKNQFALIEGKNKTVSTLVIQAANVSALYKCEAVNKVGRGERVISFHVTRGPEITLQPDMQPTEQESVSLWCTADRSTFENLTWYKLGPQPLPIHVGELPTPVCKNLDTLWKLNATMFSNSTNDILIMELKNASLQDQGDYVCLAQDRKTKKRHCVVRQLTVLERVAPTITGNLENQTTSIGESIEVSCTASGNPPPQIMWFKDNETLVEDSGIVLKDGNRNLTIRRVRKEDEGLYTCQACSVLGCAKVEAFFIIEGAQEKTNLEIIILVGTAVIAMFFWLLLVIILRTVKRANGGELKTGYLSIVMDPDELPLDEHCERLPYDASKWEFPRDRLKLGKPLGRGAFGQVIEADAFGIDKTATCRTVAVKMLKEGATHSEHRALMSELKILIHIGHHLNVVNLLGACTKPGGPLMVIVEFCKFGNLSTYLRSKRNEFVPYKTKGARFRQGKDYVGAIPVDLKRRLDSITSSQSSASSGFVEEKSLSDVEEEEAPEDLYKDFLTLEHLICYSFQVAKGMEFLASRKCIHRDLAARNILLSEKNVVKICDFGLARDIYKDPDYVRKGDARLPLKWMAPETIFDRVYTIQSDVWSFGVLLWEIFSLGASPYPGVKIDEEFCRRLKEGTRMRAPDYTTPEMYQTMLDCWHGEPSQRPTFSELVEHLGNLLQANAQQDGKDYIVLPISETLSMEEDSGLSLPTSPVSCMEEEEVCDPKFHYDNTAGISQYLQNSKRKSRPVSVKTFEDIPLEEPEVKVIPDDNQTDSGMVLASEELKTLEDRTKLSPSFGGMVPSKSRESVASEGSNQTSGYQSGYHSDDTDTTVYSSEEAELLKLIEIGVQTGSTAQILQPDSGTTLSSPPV

Structure (SMILES) | inhibition at 1 µM [1] [%] | inhibition at 1 µM [2] [%] | inhibition at 1 µM [3] [%] | IC50 [4] [µM] | IC50 [2] [µM] | IC50 [3] [µM] | IC50 [5] [µM]
O=C(Nc1cccc(F)c1)Nc1cccc(Oc2ccc3nccnc3c2)c1 [Compound C002, 1-(3-fluorophenyl)-3-(3-(quinoxalin-6-yloxy)phenyl)urea] | 70 to 89 | 70 to 89 | 70 to 89 | > 5 | – | – | –
O=C(Nc1cccc(Oc2ccc3nccnc3c2)c1)Nc1cccc(C(F)(F)F)c1 [Compound C003, 1-(3-(quinoxalin-6-yloxy)phenyl)-3-(3-(trifluoromethyl)phenyl)urea] | < 70 | > 89 | > 89 | > 5 | > 0.1 | < 0.1 | 2 to 5
O=C(Nc1cccc(Oc2ccc3nccnc3c2)c1)c1cccc(C(F)(F)F)c1 [Compound C005, N-(3-(quinoxalin-6-yloxy)phenyl)-3-(trifluoromethyl)benzamide] | 70 to 89 | 70 to 89 | 70 to 89 | > 5 | < 0.1 | > 0.1 | > 5
O=C(Nc1cccc(Oc2ccc3nccnc3c2)c1)c1ccc(Cl)c(C(F)(F)F)c1 [Compound C006, 4-chloro-N-(3-(quinoxalin-6-yloxy)phenyl)-3-(trifluoromethyl)benzamide] | < 70 | > 89 | 70 to 89 | > 5 | – | – | > 5
O=C(Nc1cc(F)cc(Oc2ccc3nccnc3c2)c1)Nc1cccc(C(F)(F)F)c1 [Compound C021, 1-(3-fluoro-5-(quinoxalin-6-yloxy)phenyl)-3-(3-(trifluoromethyl)phenyl)urea] | < 70 | > 89 | 70 to 89 | 1 to 5 | – | – | < 2
O=C(Nc1cc(F)cc(Oc2ccc3ncc(N4CCOCC4)nc3c2)c1)c1cccc(C(F)(F)F)c1 [Compound C028, N-(3-fluoro-5-((3-morpholinoquinoxalin-6-yl)oxy)phenyl)-3-(trifluoromethyl)benzamide] | < 70 | > 89 | 70 to 89 | 1 to 5 | – | – | > 5
O=C(Nc1cccc(F)c1)Nc1ccc(F)c(Oc2ccc3ncc(N4CCOCC4)nc3c2)c1 [Compound C034, 1-(4-fluoro-3-((3-morpholinoquinoxalin-6-yl)oxy)phenyl)-3-(3-fluorophenyl)urea] | < 70 | > 89 | < 70 | < 1 | – | – | > 5
O=C(Nc1cccc(Cl)c1)Nc1cccc(Oc2ccc3ncc(N4CCOCC4)nc3c2)c1 [Compound C047, 1-(3-chlorophenyl)-3-(3-((3-morpholinoquinoxalin-6-yl)oxy)phenyl)urea] | 70 to 89 | > 89 | 70 to 89 | 1 to 5 | – | – | > 5
O=C(Nc1ccc(Cl)cc1)Nc1cccc(Oc2ccc3ncc(N4CCOCC4)nc3c2)c1 [Compound C048, 1-(4-chlorophenyl)-3-(3-((3-morpholinoquinoxalin-6-yl)oxy)phenyl)urea] | 70 to 89 | > 89 | 70 to 89 | 1 to 5 | – | – | 2 to 5
O=C(Nc1ccc(F)c(F)c1)Nc1ccc(F)c(Oc2ccc3ncc(N4CCOCC4)nc3c2)c1 [Compound C052, 1-(3,4-difluorophenyl)-3-(4-fluoro-3-((3-morpholinoquinoxalin-6-yl)oxy)phenyl)urea] | 70 to 89 | > 89 | 70 to 89 | 1 to 5 | – | – | –
O=C(Nc1cc(F)cc(F)c1)Nc1ccc(F)c(Oc2ccc3ncc(N4CCOCC4)nc3c2)c1 [Compound C054, 1-(3,5-difluorophenyl)-3-(4-fluoro-3-((3-morpholinoquinoxalin-6-yl)oxy)phenyl)urea] | < 70 | > 89 | < 70 | 1 to 5 | – | – | > 5
O=C(Nc1ccc(F)cc1)Nc1ccc(F)c(Oc2ccc3ncc(N4CCNCC4)nc3c2)c1 [Compound C060, 1-(4-fluoro-3-((3-(piperazin-1-yl)quinoxalin-6-yl)oxy)phenyl)-3-(4-fluorophenyl)urea] | > 89 | > 89 | > 89 | – | – | – | 2 to 5
O=C(Nc1ccc(F)c(F)c1)Nc1ccc(F)c(Oc2ccc3ncc(N4CCNCC4)nc3c2)c1 [Compound C061, 1-(3,4-difluorophenyl)-3-(4-fluoro-3-((3-(piperazin-1-yl)quinoxalin-6-yl)oxy)phenyl)urea] | > 89 | > 89 | 70 to 89 | – | – | – | > 5
O=C(Nc1cc(F)cc(F)c1)Nc1ccc(F)c(Oc2ccc3ncc(N4CCNCC4)nc3c2)c1 [Compound C062, 1-(3,5-difluorophenyl)-3-(4-fluoro-3-((3-(piperazin-1-yl)quinoxalin-6-yl)oxy)phenyl)urea] | > 89 | > 89 | 70 to 89 | – | – | – | 2 to 5
O=C(Nc1cccc(Cl)c1)Nc1ccc(F)c(Oc2ccc3ncc(N4CCNCC4)nc3c2)c1 [Compound C063, 1-(3-chlorophenyl)-3-(4-fluoro-3-((3-(piperazin-1-yl)quinoxalin-6-yl)oxy)phenyl)urea] | > 89 | > 89 | > 89 | – | – | – | 2 to 5
O=C(Nc1ccc(Cl)cc1)Nc1ccc(F)c(Oc2ccc3ncc(N4CCNCC4)nc3c2)c1 [Compound C064, 1-(4-chlorophenyl)-3-(4-fluoro-3-((3-(piperazin-1-yl)quinoxalin-6-yl)oxy)phenyl)urea] | > 89 | > 89 | > 89 | – | – | – | 2 to 5
O=C(Nc1cccc(C(F)(F)F)c1)Nc1ccc(F)c(Oc2ccc3ncc(N4CCNCC4)nc3c2)c1 [Compound C065, 1-(4-fluoro-3-((3-(piperazin-1-yl)quinoxalin-6-yl)oxy)phenyl)-3-(3-(trifluoromethyl)phenyl)urea] | > 89 | > 89 | > 89 | – | – | – | 2 to 5
O=C(Nc1ccc(F)c(Cl)c1)Nc1ccc(F)c(Oc2ccc3ncc(N4CCNCC4)nc3c2)c1 [Compound C067, 1-(3-chloro-4-fluorophenyl)-3-(4-fluoro-3-((3-(piperazin-1-yl)quinoxalin-6-yl)oxy)phenyl)urea] | > 89 | > 89 | > 89 | – | – | – | < 2
O=C(Nc1ccc(Cl)c(F)c1)Nc1ccc(F)c(Oc2ccc3ncc(N4CCNCC4)nc3c2)c1 [Compound C068, 1-(4-chloro-3-fluorophenyl)-3-(4-fluoro-3-((3-(piperazin-1-yl)quinoxalin-6-yl)oxy)phenyl)urea] | > 89 | > 89 | 70 to 89 | – | – | – | < 2
O=C(Nc1ccc(Oc2ccc3nccnc3c2)cc1)Nc1cccc(F)c1 [Compound C074, 1-(3-fluorophenyl)-3-(4-(quinoxalin-6-yloxy)phenyl)urea] | < 70 | 70 to 89 | – | 1 to 5 | – | – | 2 to 5
O=C(Nc1ccc(Oc2ccc3ncc(N4CCOCC4)nc3c2)cc1)Nc1cccc(Cl)c1 [Compound C081, 1-(3-chlorophenyl)-3-(4-((3-morpholinoquinoxalin-6-yl)oxy)phenyl)urea] | < 70 | > 89 | > 89 | – | – | – | > 5
O=C(Nc1ccc(F)cc1)Nc1ccc(Oc2ccc3nccnc3c2)cc1F [Compound C094, 1-(2-fluoro-4-(quinoxalin-6-yloxy)phenyl)-3-(4-fluorophenyl)urea] | 70 to 89 | > 89 | – | > 5 | – | – | –
O=C(Nc1ccc(Cl)cc1)Nc1ccc(Oc2ccc3nccnc3c2)cc1F [Compound C096, 1-(4-chlorophenyl)-3-(2-fluoro-4-(quinoxalin-6-yloxy)phenyl)urea] | < 70 | > 89 | – | > 5 | – | – | –
